Assay results from ChEMBL document CHEMBL4483862, “Open-source discovery of chemical leads for next-generation chemoprotective antimalarials” (2018).

Test system: Plasmodium berghei
Assay: Luciferase/luciferin-expressing antifolate-resistant parasites were used to infect a culture of HepG2 cells that were pre-incubated with compounds. Infected hepatocytes emit light due to the luciferase reaction. Assay results are presented as the percent inhibition of light emission compared to control. […]
Type: functional
Conditions: sporozoite; for IC90: read-out: LUCIFERASE INFECTION ASSAY - IC90
[1] = PBLUC_HILL_SLOPE 3.04, PBLUC_R_SQUARED 0.101, read-out: LUCIFERASE INFECTION ASSAY - IC50
[2] = PBLUC_HILL_SLOPE 3, PBLUC_R_SQUARED 0.854, read-out: LUCIFERASE INFECTION ASSAY - IC50

| SMILES | IC90 [µM] | other results |
| --- | --- | --- |
| COc1ccc(-c2c[n+]3c4n2CCCCC4=C(c2ccccc2)C3)cc1 | > 10 | IC50 (PBLUC_HILL_SLOPE 3.06, PBLUC_R_SQUARED 0.525, read-out: LUCIFERASE INFECTION ASSAY - IC50): 6.77 µM |
| NC1=NC(=O)C(Cc2ccc(OC(F)(F)F)cc2)S1 (configuration not stated) | 1.02 | IC50 (PBLUC_HILL_SLOPE 3.06, PBLUC_R_SQUARED 0.937, read-out: LUCIFERASE INFECTION ASSAY - IC50): 0.497 µM |
| CS(=O)(=O)c1ccc(-c2cnc3c(NC=O)cc(-c4ccsc4)cn23)cc1 | 4.59 | IC50 (PBLUC_HILL_SLOPE 3.07, PBLUC_R_SQUARED 0.32, read-out: LUCIFERASE INFECTION ASSAY - IC50): 2.24 µM |
| CCCCNC(=O)C1(C)CCCCN1C(=O)c1ccc2c(c1)C(C)(C)CCC2(C)C (configuration not stated) | > 8 | IC50 (PBLUC_HILL_SLOPE 3, PBLUC_R_SQUARED 0.424, read-out: LUCIFERASE INFECTION ASSAY - IC50): 7.41 µM |
| CC(=O)c1cccc(-c2cnc3cnc(-c4cccc(F)c4)cn23)c1 | > 9.96 | IC50 (PBLUC_HILL_SLOPE 3, PBLUC_R_SQUARED 0.624, read-out: LUCIFERASE INFECTION ASSAY - IC50): 7.54 µM |
| COc1ccc(-c2cnc3cnc(-c4cccs4)cn23)cc1 | 8.31 | IC50 (PBLUC_HILL_SLOPE 3.03, PBLUC_R_SQUARED 0.723, read-out: LUCIFERASE INFECTION ASSAY - IC50): 4.02 µM |
| COCCN1C(=O)N(Cc2cccc(OC)c2)C(=O)C12CCN(C1CCc3ccccc3C1)CC2 (configuration not stated) | > 6.91 | IC50 (PBLUC_HILL_SLOPE 3.06, PBLUC_R_SQUARED 0.614, read-out: LUCIFERASE INFECTION ASSAY - IC50): 4.45 µM |
| Cc1ccc(-n2c(C)cc(C(=O)CNCc3ccccc3)c2C)cc1 | > 10 | IC50 [1]: 9.63 µM |
| CC(C)Cn1c(SCC(=O)Nc2ccccc2C(=O)OC2CC(C)CCC2C(C)C)nnc1-c1cccc(S(=O)(=O)N2CCOCC2)c1 (configuration not stated) | > 10 | IC50 (PBLUC_HILL_SLOPE 3.05, PBLUC_R_SQUARED 0.72, read-out: LUCIFERASE INFECTION ASSAY - IC50): 5.79 µM |
| O=C(NCCc1ccccn1)c1ccc(Cl)c(S(=O)(=O)N(Cc2ccccc2)c2cccc(C(F)(F)F)c2)c1 | 3.59 | IC50 (PBLUC_HILL_SLOPE 3, PBLUC_R_SQUARED 0.619, read-out: LUCIFERASE INFECTION ASSAY - IC50): 1.73 µM |
| O=C(N/N=C/c1ccc(O)cc1O)c1ccc[n+]([O-])c1 | 0.362 | IC50 [2]: 0.174 µM |
| O=C(CSc1nnc(-c2c[nH]c3ccccc23)n1C1CC1)NC1CCN(Cc2ccccc2)C1 (configuration not stated) | 8.82 | IC50 (PBLUC_HILL_SLOPE 3.03, PBLUC_R_SQUARED 0.422, read-out: LUCIFERASE INFECTION ASSAY - IC50): 4.27 µM |
| Cc1ccc(-c2nn(-c3ccccc3)cc2CN(C)C(=O)CCNC(=O)c2ccco2)cc1C | > 10 | IC50 (PBLUC_HILL_SLOPE 3, PBLUC_R_SQUARED 0.508, read-out: LUCIFERASE INFECTION ASSAY - IC50): 5.91 µM |
| CNc1nc2cnc(Nc3cccc(Cl)c3)cc2n1-c1cc(OC)c(OC)c(OC)c1 | 4.49 | IC50 (PBLUC_HILL_SLOPE 3.01, PBLUC_R_SQUARED 0.505, read-out: LUCIFERASE INFECTION ASSAY - IC50): 2.17 µM |
| Cc1ccc(-n2ncc(C(=O)OCc3nc(N)nc(N(C)C)n3)c2C(C)C)cc1 | > 10 | IC50 (PBLUC_HILL_SLOPE 2.99, PBLUC_R_SQUARED 0.678, read-out: LUCIFERASE INFECTION ASSAY - IC50): 6.36 µM |
| CC(C)(C)c1ccc(CSc2nnc(-c3ccc(C(C)(C)C)cc3)n2Cc2ccco2)cc1 | > 7.18 | IC50 (PBLUC_HILL_SLOPE 3.03, PBLUC_R_SQUARED 0.36, read-out: LUCIFERASE INFECTION ASSAY - IC50): 5.09 µM |
| COc1ccc(OC)c(CCNc2nc3cnc(-c4cc(OC)c(OC)c(OC)c4)cc3n2C)c1 | > 10 | IC50 (PBLUC_HILL_SLOPE 3.05, PBLUC_R_SQUARED 0.174, read-out: LUCIFERASE INFECTION ASSAY - IC50): 7.61 µM |
| CC(C)(C)c1ccc(-c2cnc3cnc(-c4cccc(C(N)=O)c4)cn23)cc1 | > 8.91 | IC50 (PBLUC_HILL_SLOPE 3.04, PBLUC_R_SQUARED 0.545, read-out: LUCIFERASE INFECTION ASSAY - IC50): 6.86 µM |
| CN(C)C1(CNC(=O)c2ccc(Cl)c(S(=O)(=O)N(C)c3ccc(Cl)cc3)c2)CCCCC1 | > 10 | IC50 (PBLUC_HILL_SLOPE 3.05, PBLUC_R_SQUARED 0.312, read-out: LUCIFERASE INFECTION ASSAY - IC50): 8.97 µM |
| CCCc1cc(=O)nc(SCC(=O)C23CC4CC(CC(C4)C2)C3)[nH]1 | 9.67 | IC50 (PBLUC_HILL_SLOPE 3.05, PBLUC_R_SQUARED 0.0755, read-out: LUCIFERASE INFECTION ASSAY - IC50): 4.7 µM |
| CCOC(=O)c1nn(CCc2ccccc2)c2c1CN(C(=O)c1cc(C)n[nH]1)CC2 | > 8.1 | IC50 (PBLUC_HILL_SLOPE 3.03, PBLUC_R_SQUARED 0.7, read-out: LUCIFERASE INFECTION ASSAY - IC50): 4.26 µM |

| SMILES | IC90 [µM] | other results |
| --- | --- | --- |
| COc1ccc(-c2nc3ccnc(NCc4ccc(Cl)cc4)c3[nH]2)cc1 | 4.74 | IC50 (PBLUC_HILL_SLOPE 2.99, PBLUC_R_SQUARED 0.272, read-out: LUCIFERASE INFECTION ASSAY - IC50): 2.27 µM |
| O=C(/C=N/Nc1ncc(C(F)(F)F)cc1Cl)c1ccccn1 | > 10 | IC50 (PBLUC_HILL_SLOPE 3.06, PBLUC_R_SQUARED 0.0968, read-out: LUCIFERASE INFECTION ASSAY - IC50): 8.78 µM |
| Cc1cc(-c2csc(NC(=O)CCc3nc4ccccc4[nH]3)n2)c(C)s1 | > 10 | IC50 (PBLUC_HILL_SLOPE 3, PBLUC_R_SQUARED 0.654, read-out: LUCIFERASE INFECTION ASSAY - IC50): 6.46 µM |
| Cc1cc(C)n(-c2nc(NCc3ccco3)cc(-c3ccccc3)n2)n1 | > 9.55 | IC50 (PBLUC_HILL_SLOPE 3.01, PBLUC_R_SQUARED 0.273, read-out: LUCIFERASE INFECTION ASSAY - IC50): 5.14 µM |
| O=C(CN1C(=O)C(=O)N(CCc2cccs2)C1=O)NC(=O)Nc1ccccc1F | > 10 | IC50 (PBLUC_HILL_SLOPE 3, PBLUC_R_SQUARED 0.385, read-out: LUCIFERASE INFECTION ASSAY - IC50): > 10 µM |
| Cn1c(Nc2ccccc2)nc2cnc(-c3ccc4ccccc4c3)cc21 | > 10 | IC50 (PBLUC_HILL_SLOPE 3.04, PBLUC_R_SQUARED 0.156, read-out: LUCIFERASE INFECTION ASSAY - IC50): 6.85 µM |
| S=c1n(CN2CCN(c3ccccc3Cl)CC2)nc(-c2cccs2)n1Cc1ccccc1 | 0.362 | IC50 [2]: 0.174 µM |
| CN(Cc1ccccc1)S(=O)(=O)c1ccc(Cl)c(C(=O)Nc2nnc(C(F)(F)F)[nH]2)c1 | 7.66 | IC50 (PBLUC_HILL_SLOPE 3.05, PBLUC_R_SQUARED 0.465, read-out: LUCIFERASE INFECTION ASSAY - IC50): 3.73 µM |
| CCNC(=O)c1cc2c(s1)CCC(C(C)(C)C)C2 (configuration not stated) | > 10 | IC50 (PBLUC_HILL_SLOPE 3.05, PBLUC_R_SQUARED 0.267, read-out: LUCIFERASE INFECTION ASSAY - IC50): 6.74 µM |
| Cc1cc(C)c(CSCCNC(=O)Nc2ccccc2)c(C)c1 | > 10 | IC50 (PBLUC_HILL_SLOPE 3.02, PBLUC_R_SQUARED 0.314, read-out: LUCIFERASE INFECTION ASSAY - IC50): 4.91 µM |
| O=C(CN1CCC(C(=O)Nc2ccccc2O)CC1)Nc1nc(-c2cccc([N+](=O)[O-])c2)cs1 | > 10 | IC50 (PBLUC_HILL_SLOPE 3.03, PBLUC_R_SQUARED 0.0575, read-out: LUCIFERASE INFECTION ASSAY - IC50): 6.47 µM |
| O=[N+]([O-])c1ccc(-c2noc(CCOc3ccc(F)cc3)n2)o1 | 9.89 | IC50 (PBLUC_HILL_SLOPE 3.03, PBLUC_R_SQUARED 0.707, read-out: LUCIFERASE INFECTION ASSAY - IC50): 4.78 µM |
| COc1ccc(CCN(C)CC(O)COc2ccc(C(C)(C)CC(C)(C)C)cc2)cc1OC (configuration not stated) | > 10 | IC50 [1]: 9.63 µM |
| Cn1c(=O)c2ccc(C(=O)Nc3cccc(C(=O)Nc4cccc(C(F)(F)F)c4)c3)nc2n(C)c1=O | > 10 | IC50 (PBLUC_HILL_SLOPE 3.03, PBLUC_R_SQUARED 0.059, read-out: LUCIFERASE INFECTION ASSAY - IC50): 6.54 µM |
| Cn1c(Nc2ccccc2)nc2cnc(Nc3ccc(Oc4ccccc4)cc3)cc21 | > 10 | IC50 (PBLUC_HILL_SLOPE 3.01, PBLUC_R_SQUARED 0.581, read-out: LUCIFERASE INFECTION ASSAY - IC50): 5.93 µM |
| O=C(Cc1csc(Cc2ccccc2)n1)N1CCc2ccc(O)cc2C1 | > 10 | IC50 (PBLUC_HILL_SLOPE 3.03, PBLUC_R_SQUARED 0.78, read-out: LUCIFERASE INFECTION ASSAY - IC50): 6.09 µM |
| COc1ccc(C2=NN(c3ccccc3)C(c3cn(-c4ccccc4)nc3-c3cccnc3)C2)cc1 (configuration not stated) | 9.32 | IC50 (PBLUC_HILL_SLOPE 3.03, PBLUC_R_SQUARED 0.661, read-out: LUCIFERASE INFECTION ASSAY - IC50): 4.51 µM |
| O=C(Nc1ccc(OC(F)(F)F)cc1)Nc1ccc2nc(-c3ccc(F)c(Cl)c3)nn2c1 | > 10 | IC50 (PBLUC_HILL_SLOPE 3.06, PBLUC_R_SQUARED 0.207, read-out: LUCIFERASE INFECTION ASSAY - IC50): 7.2 µM |
| CC(C)C(NC(=O)c1ccc(F)cc1)C(=O)NCC1Cc2ccccc21 (configuration not stated) | > 10 | IC50 (PBLUC_HILL_SLOPE 3.06, PBLUC_R_SQUARED 0.302, read-out: LUCIFERASE INFECTION ASSAY - IC50): 6.96 µM |
| N#Cc1cc(-c2nc(-c3ccccc3)cs2)c(N)[nH]c1=S | > 10 | IC50 (PBLUC_HILL_SLOPE 3, PBLUC_R_SQUARED 0.293, read-out: LUCIFERASE INFECTION ASSAY - IC50): 6.32 µM |
